Laboratory results reported in ChEMBL document CHEMBL3864165, “Design, synthesis, and AChE inhibitory activity of new benzothiazole-piperazines” (Bioorg Med Chem Lett, 2016).
pIC50: −log10 of the molar value.

What was measured:
Acetylcholinesterase = Acetylcholinesterase (Electrophorus electricus, UniProt O42275); assay: Inhibition of electric eel AChE preincubated for 15 mins followed by acetylthiocholine iodide substrate addition measured for 5 mins by Ellman's spectrophotometric method
[1] = molecular target: Acetylcholinesterase (Electrophorus electricus) (UniProt O42275); assay: Inhibition of electric eel AChE at 10^-6 M preincubated for 15 mins followed by acetylthiocholine iodide substrate addition measured for 5 mins by Ellman's spectrophotometric method relative to control
[2] = molecular target: Acetylcholinesterase (Electrophorus electricus) (UniProt O42275); assay: Inhibition of electric eel AChE at 10^-7 M preincubated for 15 mins followed by acetylthiocholine iodide substrate addition measured for 5 mins by Ellman's spectrophotometric method relative to control
[3] = Cytotoxicity against mouse NIH/3T3 cells after 24 hrs by MTT assay; details: nih3t3
[4] = molecular target: Acetylcholinesterase (Electrophorus electricus) (UniProt O42275); assay: Inhibition of electric eel AChE at 10^-4 M preincubated for 15 mins followed by acetylthiocholine iodide substrate addition measured for 5 mins by Ellman's spectrophotometric method relative to control
[5] = molecular target: Acetylcholinesterase (Electrophorus electricus) (UniProt O42275); assay: Inhibition of electric eel AChE at 10^-3 M preincubated for 15 mins followed by acetylthiocholine iodide substrate addition measured for 5 mins by Ellman's spectrophotometric method relative to control

Sequence of Acetylcholinesterase (O42275 whole entry): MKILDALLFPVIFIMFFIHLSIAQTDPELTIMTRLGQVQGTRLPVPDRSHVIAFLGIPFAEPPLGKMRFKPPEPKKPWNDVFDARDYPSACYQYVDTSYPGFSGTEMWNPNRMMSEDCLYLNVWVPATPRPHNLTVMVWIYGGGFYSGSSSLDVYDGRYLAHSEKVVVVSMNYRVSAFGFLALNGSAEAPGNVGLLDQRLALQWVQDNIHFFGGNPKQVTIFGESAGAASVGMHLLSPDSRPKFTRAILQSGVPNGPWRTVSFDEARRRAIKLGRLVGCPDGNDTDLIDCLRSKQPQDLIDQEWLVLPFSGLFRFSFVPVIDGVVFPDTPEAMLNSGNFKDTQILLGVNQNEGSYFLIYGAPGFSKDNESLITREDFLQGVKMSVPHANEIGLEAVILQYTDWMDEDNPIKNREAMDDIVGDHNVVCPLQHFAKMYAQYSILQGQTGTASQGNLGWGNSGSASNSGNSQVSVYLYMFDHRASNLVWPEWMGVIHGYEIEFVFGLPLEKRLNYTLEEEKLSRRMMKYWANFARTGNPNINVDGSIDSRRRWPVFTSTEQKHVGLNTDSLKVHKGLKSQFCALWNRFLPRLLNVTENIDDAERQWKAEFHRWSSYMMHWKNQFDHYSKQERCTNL
Sequence of Acetylcholinesterase (Electrophorus electricus) (O42275 24-633 limits assumed): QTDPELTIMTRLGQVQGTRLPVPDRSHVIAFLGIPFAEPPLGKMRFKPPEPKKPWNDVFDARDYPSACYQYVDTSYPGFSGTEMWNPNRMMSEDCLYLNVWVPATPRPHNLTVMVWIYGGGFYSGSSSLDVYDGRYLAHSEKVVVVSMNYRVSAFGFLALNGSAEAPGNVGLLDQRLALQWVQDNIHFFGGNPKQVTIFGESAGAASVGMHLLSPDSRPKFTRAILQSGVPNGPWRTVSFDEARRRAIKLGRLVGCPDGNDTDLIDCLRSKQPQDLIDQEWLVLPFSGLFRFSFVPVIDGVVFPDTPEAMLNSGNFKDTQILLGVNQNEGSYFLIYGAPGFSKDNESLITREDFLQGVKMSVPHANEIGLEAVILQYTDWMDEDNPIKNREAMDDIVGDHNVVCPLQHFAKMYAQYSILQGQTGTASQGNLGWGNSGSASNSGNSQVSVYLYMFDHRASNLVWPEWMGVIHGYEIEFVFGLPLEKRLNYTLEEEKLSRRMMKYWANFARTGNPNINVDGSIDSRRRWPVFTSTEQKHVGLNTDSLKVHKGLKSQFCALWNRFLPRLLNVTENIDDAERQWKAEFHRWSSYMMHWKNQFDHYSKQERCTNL

Row | SMILES | pIC50 (Acetylcholinesterase) | inhibition [1] [%] | inhibition [2] [%] | IC50 at 24 h [3] [nM] | inhibition [4] [%] | inhibition [5] [%]
1 | COc1cc2nc(NC(=O)CN3CCN(Cc4ccc(C(F)(F)F)cc4)CC3)sc2cc1OC | 6.70 | > 50 |  |  |  | 
2 | COc1ccc2nc(NC(=O)CN3CCN(CCCN(C)C)CC3)sc2c1 | 6.93 | > 50 | > 50 |  |  | 
3 | COc1ccc2nc(NC(=O)CN3CCN(Cc4ccc(F)cc4)CC3)sc2c1 | 6.61 | > 50 |  |  |  | 
4 | COc1cc2c(cc1OC)C(=O)C(CC1CCN(Cc3ccccc3)CC1)C2 (stereo not drawn) [DONEPEZIL] |  |  |  | 316000 |  | 
5 | COc1cc2nc(NC(=O)CN3CCN(Cc4ccc(Cl)cc4)CC3)sc2cc1OC | 6.89 | > 50 |  |  |  | 
6 | COc1ccc(CN2CCN(CC(=O)Nc3nc4ccc(OC)cc4s3)CC2)cc1 | 6.40 | > 50 |  |  |  | 
7 | COc1cc2nc(NC(=O)CN3CCN(Cc4ccc(F)cc4)CC3)sc2cc1OC | 6.76 | > 50 |  |  |  | 
8 | COc1ccc2nc(NC(=O)CN3CCN(Cc4ccc(Cl)cc4)CC3)sc2c1 | 6.66 | > 50 |  |  | 90 | > 95
